This note sets out measurements from patent US8168647B2, “Vinblastine derivatives, their preparation, use and pharmaceutical compositions comprising the said derivatives” (Shanghai Institute of Materia Medica Chinese Academy of …, priority 2007, dated 2012).

Experiment [1] deals with human non-small cell lung cancer cell line A-549. Put plainly: In vitro cytotoxicity assay, Sulforhodamine B (SRB), A-549. It counts as cell-based. Conditions: Homo sapiens.
In experiment [2] the test system is human cervical carcinoma cell line Hela. The experiment can be described thus: In vitro cytotoxicity assay, Sulforhodamine B (SRB), Hela. It counts as cell-based. Conditions: Homo sapiens, HeLa.
Setting [3] is: A549, 72 h, read-out: A549 (IC50, nM).
The mark [4] stands for this setting: 72 h, read-out: Hela (IC50, nM).

Counter-ions that a name gives are not always drawn. Like-named read-outs stand apart in the source and are kept apart here.

`CCC1=C[C@@H]2CN(CCc3c([nH]c4ccccc34)[C@@](C(=O)OC)(c3cc4c(cc3OC)N(C)[C@H]3C(O)(CNC(=O)Oc5ccccc5OC)[C@H](OC(C)=O)[C@]5(CC)C=CCN6CC[C@]43[C@@H]65)C2)C1` (stereo partly shown) [BM64]: the values for the concentration for half-maximal inhibition (IC50) in experiment [1] (setting [3]) and in experiment [2] (setting [4]) were 951 nM and 227 nM, respectively.
The corresponding values for `CCC1=C[C@@H]2CN(CCc3c([nH]c4ccccc34)[C@@](C(=O)OC)(c3cc4c(cc3OC)N(C)[C@H]3C(O)(COC(=O)CC(C)C)[C@H](OC(C)=O)[C@]5(CC)C=CCN6CC[C@]43[C@@H]65)C2)C1` (stereo partly shown) [BM13] are greater than 1000 nM and greater than 1000 nM.
The corresponding values for `CC[C@]1(O)C[C@@H]2CN(CCc3c([nH]c4ccccc34)[C@@](C(=O)OC)(c3cc4c(cc3OC)N(C)[C@H]3[C@@](O)(C(=O)OC)[C@H](OC(C)=O)[C@]5(CC)C=CCN6CC[C@]43[C@@H]65)C2)C1` [Vinblastine sulfate, vinblastine sulfate, reference compound] are 3.4 nM and 2.5 nM.
Regarding `CCC1=C[C@@H]2CN(CCc3c([nH]c4ccccc34)[C@@](C(=O)OC)(c3cc4c(cc3OC)N(C)[C@H]3C(O)(COC(=O)C(C)(C)C)[C@H](OC(C)=O)[C@]5(CC)C=CCN6CC[C@]43C65)C2)C1` (stereo partly shown) [BM12], the figures for the IC50 in experiment [1] (setting [3]) and in experiment [2] (setting [4]) were 576 nM and 95.9 nM, respectively.
Turning to `CC[C@]1(O)C[C@H]2CN(CCc3c([nH]c4ccccc34)[C@@](C(=O)OC)(c3cc4c(cc3OC)N(C=O)[C@H]3[C@@](O)(C(=O)OC)[C@H](OC(C)=O)[C@]5(CC)C=CCN6CC[C@]43[C@@H]65)C2)C1` [Vincristine sufate, reference compound], the IC50 (commonly the concentration at which inhibition is half-maximal) in experiment [1] (A549, SRB assay, 72 hours incubation, ditartrate of all compounds used, read-out: A549 (IC50)) turned out to be 25.1 nM; in experiment [2] (SRB assay, 72 hours incubation, ditartrate of all compounds used, read-out: Hela (IC50)) it was 11.3 nM.
Turning to `CCC1=C[C@@H]2CN(CCc3c([nH]c4ccccc34)[C@@](C(=O)OC)(c3cc4c(cc3OC)N(C)[C@H]3C(O)(CNC(=O)OCc5ccc([N+](=O)[O-])cc5)[C@H](OC(C)=O)[C@]5(CC)C=CCN6CC[C@]43[C@@H]65)C2)C1` (stereo partly shown) [BM73], the IC50 in experiment [1] (setting [3]) turned out to be 780 nM; in experiment [2] (setting [4]), 432 nM.
`CCCC(=O)NCC1(O)[C@H](OC(C)=O)[C@]2(CC)C=CCN3CC[C@@]4(c5cc([C@@]6(C(=O)OC)C[C@@H]7C=C(CC)CN(CCc8c6[nH]c6ccccc86)C7)c(OC)cc5N(C)[C@@H]14)[C@@H]32` (stereo partly shown) [BM29]: the concentration for half-maximal inhibition (IC50) in experiment [1] (setting [3]) is 348 nM; in experiment [2] (setting [4]), 126 nM.
`CCC1=C[C@@H]2CN(CCc3c([nH]c4ccccc34)[C@@](C(=O)OC)(c3cc4c(cc3OC)N(C)[C@H]3C(O)(COC(C)=O)[C@H](OC(C)=O)[C@]5(CC)C=CCN6CC[C@]43C65)C2)C1` (stereo partly shown) [BM6]: the values for the IC50 in experiment [1] (setting [3]) and in experiment [2] (setting [4]) were 124 nM and 47.6 nM, respectively.
For the compound `CCCCOCC1(O)[C@H](OC(C)=O)[C@]2(CC)C=CCN3CC[C@@]4(c5cc([C@@]6(C(=O)OC)C[C@@H]7C=C(CC)CN(CCc8c6[nH]c6ccccc86)C7)c(OC)cc5N(C)[C@@H]14)[C@@H]32` (stereo partly shown) [BM4], the IC50 is greater than 1000 nM in experiment [1] (setting [3]) and 295 nM in experiment [2] (setting [4]).
The corresponding values for `CCC1=C[C@@H]2CN(CCc3c([nH]c4ccccc34)[C@@](C(=O)OC)(c3cc4c(cc3OC)N(C)[C@H]3C(O)(CNC(=O)OCc5ccc6c(c5)OCO6)[C@H](OC(C)=O)[C@]5(CC)C=CCN6CC[C@]43[C@@H]65)C2)C1` (stereo partly shown) [BM69] are 230 nM and 127 nM.
The corresponding values for `CCC(=O)OCC1(O)[C@H](OC(C)=O)[C@]2(CC)C=CCN3CC[C@@]4(c5cc([C@@]6(C(=O)OC)C[C@@H]7C=C(CC)CN(CCc8c6[nH]c6ccccc86)C7)c(OC)cc5N(C)[C@@H]14)[C@@H]32` (stereo partly shown) [BM10] are 710 nM and 637 nM.
The corresponding values for `CCC1=C[C@@H]2CN(CCc3c([nH]c4ccccc34)[C@@](C(=O)OC)(c3cc4c(cc3OC)N(C)[C@H]3C(O)(CNC(=O)OCc5ccccc5OC)[C@H](OC(C)=O)[C@]5(CC)C=CCN6CC[C@]43[C@@H]65)C2)C1` (stereo partly shown) [BM67] are 480 nM and 176 nM.
On to `CCC1=C[C@@H]2CN(CCc3c([nH]c4ccccc34)[C@@](C(=O)OC)(c3cc4c(cc3OC)N(C)[C@H]3C(O)(CNC(=O)C(F)(F)F)[C@H](OC(C)=O)[C@]5(CC)C=CCN6CC[C@]43[C@@H]65)C2)C1` (stereo partly shown) [BM26], for which the half-inhibitory concentration (IC50) is 56.3 nM in experiment [1] (setting [3]) and 61.6 nM in experiment [2] (setting [4]).
As to `CCC1=C[C@@H]2CN(CCc3c([nH]c4ccccc34)[C@@](C(=O)OC)(c3cc4c(cc3OC)N(C)[C@H]3C(O)(CNC(=O)OCCOC)[C@H](OC(C)=O)[C@]5(CC)C=CCN6CC[C@]43[C@@H]65)C2)C1` (stereo partly shown) [BM54], the IC50 in experiment [1] (setting [3]) was 632 nM; in experiment [2] (setting [4]), 425 nM.
The corresponding values for `CCC1=C[C@@H]2CN(CCc3c([nH]c4ccccc34)[C@@](C(=O)OC)(c3cc4c(cc3OC)N(C)[C@H]3C(O)(CNC(=O)OCc5ccc(Cl)cc5)[C@H](OC(C)=O)[C@]5(CC)C=CCN6CC[C@]43[C@@H]65)C2)C1` (stereo partly shown) [BM71] are 510 nM and 347 nM.
For the compound `CCC1=C[C@@H]2CN(CCc3c([nH]c4ccccc34)[C@@](C(=O)OC)(c3cc4c(cc3OC)N(C)[C@H]3C(O)(CNC(=O)OC(C)C)[C@H](OC(C)=O)[C@]5(CC)C=CCN6CC[C@]43[C@@H]65)C2)C1` (stereo partly shown) [BM50], the half-maximal inhibitory concentration (IC50) turned out to be 162 nM in experiment [1] (setting [3]) and 26.2 nM in experiment [2] (setting [4]).
The corresponding values for `CCC1=C[C@@H]2CN(CCc3c([nH]c4ccccc34)[C@@](C(=O)OC)(c3cc4c(cc3OC)N(C)[C@H]3C(O)(CNC(=O)OC5CCC5)[C@H](OC(C)=O)[C@]5(CC)C=CCN6CC[C@]43[C@@H]65)C2)C1` (stereo partly shown) [BM58] are 97.3 nM and 62.9 nM.
The corresponding values for `CCC1=C[C@@H]2CN(CCc3c([nH]c4ccccc34)[C@@](C(=O)OC)(c3cc4c(cc3OC)N(C)[C@H]3C(O)(CNC(=O)c5cccc(Cl)c5)[C@H](OC(C)=O)[C@]5(CC)C=CCN6CC[C@]43C65)C2)C1` (stereo partly shown) [BM40] are 103 nM and 42 nM.
The corresponding values for `C=C(C)C(=O)NCC1(O)[C@H](OC(C)=O)[C@]2(CC)C=CCN3CC[C@@]4(c5cc([C@@]6(C(=O)OC)C[C@@H]7C=C(CC)CN(CCc8c6[nH]c6ccccc86)C7)c(OC)cc5N(C)[C@@H]14)[C@@H]32` (stereo partly shown) [BM32] are 17.9 nM and 12.5 nM.
For the compound `CCC1=C[C@@H]2CN(CCc3c([nH]c4ccccc34)[C@@](C(=O)OC)(c3cc4c(cc3OC)N(C)[C@H]3C(O)(CNC(=O)OCc5ccccc5[N+](=O)[O-])[C@H](OC(C)=O)[C@]5(CC)C=CCN6CC[C@]43[C@@H]65)C2)C1` (stereo partly shown) [BM72], the IC50 amounted to 830 nM in experiment [1] (setting [3]) and 561 nM in experiment [2] (setting [4]).
The corresponding values for `CCC1=C[C@@H]2CN(CCc3c([nH]c4ccccc34)[C@@](C(=O)OC)(c3cc4c(cc3OC)N(C)[C@H]3C(O)(CNC(C)=O)[C@H](OC(C)=O)[C@]5(CC)C=CCN6CC[C@]43[C@@H]65)C2)C1` (stereo partly shown) [BM25] are greater than 1000 nM and 477 nM.
The corresponding values for `CCCOCC1(O)[C@H](OC(C)=O)[C@]2(CC)C=CCN3CC[C@@]4(c5cc([C@@]6(C(=O)OC)C[C@@H]7C=C(CC)CN(CCc8c6[nH]c6ccccc86)C7)c(OC)cc5N(C)[C@@H]14)[C@@H]32` (stereo partly shown) [BM3] are greater than 1000 nM and greater than 1000 nM.
The corresponding values for `C=CCOCC1(O)[C@H](OC(C)=O)[C@]2(CC)C=CCN3CC[C@@]4(c5cc([C@@]6(C(=O)OC)C[C@@H]7C=C(CC)CN(CCc8c6[nH]c6ccccc86)C7)c(OC)cc5N(C)[C@@H]14)[C@@H]32` (stereo partly shown) [BM2] are 441 nM and 113 nM.
